Assays:
Experiment in all cases: relative viability (nuclei count vs DMSO), 5 days (fraction); higher = more cells survive
CX-5461 + Crizotinib = compound: Cc1cnc(CNC(=O)c2c(=O)c3ccc(N4CCCN(C)CC4)nc3n3c2sc2ccccc23)cn1 [CX-5461] + C[C@@H](Oc1cc(-c2cnn(C3CCNCC3)c2)cnc1N)c1c(Cl)ccc(F)c1Cl [Crizotinib] (partner 1 µM)
Summary of the method: (§1)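 For relative viability, nuclei counts in treated wells were divided by those in vehicle wells. Lung cancer cell lines had been pin-tool dosed in 1536-well plates the day after seeding and cultured for 5 days, then fixed and stained in one step (final 0.05% Triton X-100, 1% formaldehyde, 1 ug/ml Hoechst) and imaged at 4×. Doses were one drug alone or a fixed anchor-drug dose plus five library-drug doses (not always all listed) in √10 steps, and values are duplicate-plate medians.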

CX-5461 + Decitabine = compound: Cc1cnc(CNC(=O)c2c(=O)c3ccc(N4CCCN(C)CC4)nc3n3c2sc2ccccc23)cn1 [CX-5461] + Nc1ncn([C@H]2C[C@H](O)[C@@H](CO)O2)c(=O)n1 [Decitabine] (partner 2 µM)
Summary of the method: as §1

IMD-0354 + Tozasertib = compound: O=C(Nc1cc(C(F)(F)F)cc(C(F)(F)F)c1)c1cc(Cl)ccc1O [IMD-0354] + Cc1cc(Nc2cc(N3CCN(C)CC3)nc(Sc3ccc(NC(=O)C4CC4)cc3)n2)n[nH]1 [Tozasertib] (partner 0.1 µM)
Summary of the method: as §1

IMD-0354 + Vorinostat = compound: O=C(Nc1cc(C(F)(F)F)cc(C(F)(F)F)c1)c1cc(Cl)ccc1O [IMD-0354] + O=C(CCCCCCC(=O)Nc1ccccc1)NO [Vorinostat] (partner 1 µM)
Summary of the method: as §1

Cell Line | relative viability (CX-5461 + Crizotinib; first compound 0.01 µM) | relative viability (CX-5461 + Crizotinib; first compound 0.03162 µM) | relative viability (CX-5461 + Crizotinib; first compound 0.1 µM) | relative viability (CX-5461 + Crizotinib; first compound 0.3162 µM) | relative viability (CX-5461 + Crizotinib; first compound 1 µM) | relative viability (CX-5461 + Decitabine; first compound 0.01 µM) | relative viability (CX-5461 + Decitabine; first compound 0.03162 µM) | relative viability (CX-5461 + Decitabine; first compound 0.1 µM) | relative viability (CX-5461 + Decitabine; first compound 0.3162 µM) | relative viability (CX-5461 + Decitabine; first compound 1 µM) | relative viability (IMD-0354 + Tozasertib; first compound 0.04 µM) | relative viability (IMD-0354 + Tozasertib; first compound 0.1265 µM) | relative viability (IMD-0354 + Tozasertib; first compound 0.4 µM) | relative viability (IMD-0354 + Tozasertib; first compound 1.265 µM) | relative viability (IMD-0354 + Tozasertib; first compound 4 µM) | relative viability (IMD-0354 + Vorinostat; first compound 0.04 µM) | relative viability (IMD-0354 + Vorinostat; first compound 0.1265 µM) | relative viability (IMD-0354 + Vorinostat; first compound 0.4 µM) | relative viability (IMD-0354 + Vorinostat; first compound 1.265 µM) | relative viability (IMD-0354 + Vorinostat; first compound 4 µM)
SK-LU-1 | 0.95 | 1.01 | 0.837 | 0.891 | 0.51 | 0.722 | 0.597 | 0.709 | 0.754 | 0.455 | 0.308 | 0.349 | 0.304 | 0.2 | 0.189 | 0.796 | 0.597 | 0.623 | 0.194 | 0.264
LU99A | 0.571 | 0.552 | 0.495 | 0.344 | 0.453 | 0.925 | 0.958 | 0.923 | 0.594 | 0.79 | 0.326 | 0.254 | 0.267 | 0.244 | 0.218 | 0.417 | 0.498 | 0.375 | 0.2 | 0.162
NCI-H1355 | 1.06 | 1.24 | 1.04 | 1.07 | 1.09 | 0.356 | 0.34 | 0.395 | 0.371 | 0.348 | 0.598 | 0.528 | 0.594 | 0.271 | 0.258 | 0.75 | 0.651 | 0.45 | 0.433 | 0.231
HCC-78 | 0.357 | 0.36 | 0.358 | 0.243 | 0.328 | 0.678 | 0.678 | 0.595 | 0.694 | 0.565 | 0.467 | 0.598 | 0.3 | 0.368 | 0.231 | 0.406 | 0.378 | 0.405 | 0.407 | 0.31
NCI-H1563 | 0.865 | 0.725 | 0.774 | 0.675 | 0.464 |  |  |  |  |  |  |  |  |  |  |  |  |  |  | 
HCC-15 | 0.884 | 0.888 | 0.765 | 0.766 | 0.691 | 0.684 | 0.654 | 0.605 | 0.69 | 0.354 | 0.331 | 0.379 | 0.31 | 0.17 | 0.098 | 0.931 | 0.799 | 0.516 | 0.327 | 0.2
EKVX | 1.12 | 0.997 | 0.899 |  | 0.827 | 0.286 | 0.418 | 0.395 |  | 0.39 | 0.382 | 0.397 | 0.269 | 0.456 | 0.149 | 0.469 | 0.754 | 0.556 | 0.691 | 0.359
NCI-H2087 | 0.989 | 0.969 | 0.874 | 0.813 | 0.593 | 0.277 | 0.306 | 0.213 | 0.288 | 0.188 | 0.273 | 0.228 | 0.167 | 0.167 | 0.126 | 0.806 | 0.837 | 0.2 | 0.0721 | 0.0731
NCI-H1395 |  |  |  |  |  | 0.764 | 0.673 | 0.805 | 0.653 | 0.532 | 0.753 | 0.721 | 0.683 | 0.453 | 0.344 | 0.873 | 0.691 | 0.616 | 0.375 | 0.408
